# From patent US20260102407A1, “TREATMENT METHODS” (priority 2020, published 2026)
# “Also recorded” adds a separate entry of the source.
# Tests used:
# [1] = target: T1, Recombinant human His-MEK2 (Homo sapiens, UniProt P36507); experiment: SPR (Biacore T200) on immobilised His-MEK2; type: binding; conditions: 15° C.; 20 mM HEPES, 150 mM NaCl, 5% DMSO pH 7.4
# T1 construct: purchased ThermoFisher Scientific PV3615
# Method: (§1) SPR. SPR was performed on a Biacore T200. The active and reference flow cells of a Xantec NIHMC Ni sensor chip were conditioned with 0.5M NaEDTA followed by 5 mM NiCl2 in immobilisation buffer (20 mM HEPES, 150 mM NaCl, pH 7.4). Recombinant human His-MEK1 and His-MEK2 (500 nM, ThermoFisher Scientific, cat. PV3303 and PV3615, respectively) were injected for 15 min at 10 μl min^−1 over separate active flow cells. All immobilisation was carried out at 25° C. Following immobilisation, the temperature was lowered to 15° C., and the buffer changed to 20 mM HEPES, 150 mM NaCl, 5% DMSO pH 7.4. Samples of PD98059 (2.5-30 μM in running buffer) and BT2 (1.25-15 μM) were injected at a flow rate of 30 μl min^−1 over immobilised MEK1 and MEK2. Solvent correction was applied to the data using a DMSO standard curve. Data were analysed using the Biacore T200 Evaluation software. Prior to SPR, limits of compound solubility were determined using ^1H 1D NMR.
# [2] = target: T2, Recombinant human His-MEK1 (Homo sapiens, UniProt Q02750); experiment: SPR (Biacore T200) on immobilised His-MEK1; type: binding; conditions: 15° C.; 20 mM HEPES, 150 mM NaCl, 5% DMSO pH 7.4
# T2 construct: purchased ThermoFisher Scientific PV3303
# T2 sequence (Q02750 whole entry): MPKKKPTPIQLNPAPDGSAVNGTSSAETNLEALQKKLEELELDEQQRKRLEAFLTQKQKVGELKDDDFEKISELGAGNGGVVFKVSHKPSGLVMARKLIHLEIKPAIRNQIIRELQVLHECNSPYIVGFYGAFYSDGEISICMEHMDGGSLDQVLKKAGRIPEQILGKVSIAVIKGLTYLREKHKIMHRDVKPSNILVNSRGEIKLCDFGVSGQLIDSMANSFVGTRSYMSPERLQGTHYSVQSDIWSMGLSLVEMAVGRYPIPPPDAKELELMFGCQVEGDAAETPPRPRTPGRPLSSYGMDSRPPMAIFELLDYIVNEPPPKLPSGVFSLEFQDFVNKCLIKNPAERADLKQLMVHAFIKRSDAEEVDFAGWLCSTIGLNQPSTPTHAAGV
# Method: as §1
# [3] = test system: HMEC-1; experiment: Endothelial network formation assay on Matrigel; type: cell-based, human
# Method: Endothelial network formation assay. HMEC-1 (4×10^4 cells/well) in MCDB131 containing 1% FBS and compound (1 or 3 μM) or curcumin (1-40 μM) and 50 ng/ml FGF-2 were added to 96-well plates coated overnight at 4° C. with 100 μl of growth factor-reduced reconstituted basement membrane matrix (Matrigel, cat. 354230, Corning, NY). Network formation was observed over subsequent hours and photographed under 4× or 10× objective using an Olympus CKX41 microscope.
# [4] = Limit of compound solubility by 1H 1D NMR; type: physicochemical; conditions: 1H 1D NMR spectroscopy
# Method: as §1
# [5] = test system: ERK phosphorylation; experiment: Western blot, IL-1β-inducible ERK phosphorylation in HMEC-1; type: cell-based, human; conditions: 20 ng/ml IL-1β 15 min
# Method: Western blot analysis with extracts of cells treated with […]. HMEC-1 (80-90% confluency) were arrested in serum-free MCDB131 medium (Invitrogen, MD) without any growth factor for 48 h. Cells were treated with 30 μM compound in serum-free medium for 4 h, and incubated with 20 ng/ml IL-1β (Sigma, cat. SRE3083) in serum-free medium with the same concentration of compound for up to 4 h, unless otherwise indicated. Total protein was harvested as previously described using RIPA buffer with protease inhibitors. Proteins were resolved on 4-20% (w/v) SDS-polyacrylamide gradient gels and transferred to Immobilon-P PVDF membranes. Membranes were blocked with 5% skim milk and incubated with rabbit monoclonal FosB (cat. 2251S, 1:1000, Cell Signaling, USA), rabbit monoclonal VCAM-1 (cat. 13662S, 1:1000, Cell Signaling, USA), rabbit monoclonal p44/42 MAPK (cat. 4695S, 1:1000, Cell Signaling, USA), rabbit polyclonal p38 MAPK (cat. 9212S, 1:1000, Cell Signaling, USA), rabbit polyclonal SAPK/JNK (cat. 9252S, 1:1000, Cell Signaling, USA), rabbit monoclonal phospho-SAPK/JNK (cat. 4671S, 1:1000, Cell Signaling, USA), rabbit monoclonal phospho-p38 MAPK (cat. 4511S, 1:1000, Cell Signaling, USA), or, mouse monoclonal phospho-p44/42 MAPK antibodies (cat. 9106S, 1:2000, Cell Signaling, USA) at 4° C. overnight or mouse monoclonal β-actin antibodies (cat. A5316, 1:10000, Sigma-Aldrich) antibodies at 22° C. for 1 h. Membranes were then incubated with horseradish peroxidase conjugated secondary goat anti-rabbit (cat. P0448, 1:1000, DAKO Cytomation, Denmark) or goat anti-mouse (cat. P0447, 1:1000, DAKO Cytomation, Denmark) antibodies for 1 h. Chemiluminescence was detected using the Western Lightning Chemiluminescence system and ImageQuant™ LAS 4000 biomolecular imager. Band intensity in images generated with the LAS 4000 using the same settings were quantified by NIH ImageJ.
# T1 sequence (P36507 whole entry): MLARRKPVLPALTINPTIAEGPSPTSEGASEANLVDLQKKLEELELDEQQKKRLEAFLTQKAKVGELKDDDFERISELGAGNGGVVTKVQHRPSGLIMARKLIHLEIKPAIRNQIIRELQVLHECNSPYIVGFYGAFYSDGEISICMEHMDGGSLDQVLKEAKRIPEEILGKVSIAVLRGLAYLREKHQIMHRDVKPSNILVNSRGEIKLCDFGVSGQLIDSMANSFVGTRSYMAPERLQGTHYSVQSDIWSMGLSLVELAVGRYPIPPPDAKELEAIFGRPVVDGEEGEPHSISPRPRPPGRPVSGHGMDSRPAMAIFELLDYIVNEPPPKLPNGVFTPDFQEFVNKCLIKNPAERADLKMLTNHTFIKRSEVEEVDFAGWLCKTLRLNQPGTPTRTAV
smiles,measurement,setting,value
"CCN1C(=O)c2cc(NC(=O)OCC(C)C)ccc2Oc2ccccc21 [BT2-IC, isobutyl (10-ethyl-11-oxo-10,11-dihydrodibenzo[b,f][1,4]oxazepin-2-yl)carbamate]",binding to His-MEK2 (SPR),[1],but not MEK2
same,binding to His-MEK1 (SPR),[2],some interaction with MEK1
same,inhibition of network formation on Matrigel (FIG. 5B),[3]; 1 μM,not at 1 μM
same,inhibition of network formation on Matrigel (FIG. 13B),[3]; 3 μM,some inhibition of network formation at higher concentrations; also recorded: inhibited both ERK phosphorylation (FIG. 13A) and network formation (FIG. 13B) at 3 μM (albeit less potently than BT2)
same,solubility,[4],8 ± 2 µM
same,IL-1β-inducible ERK phosphorylation (FIG. 5D),[5]; 1 μM,not at 1 μM
same,IL-1β-inducible ERK phosphorylation (FIG. 13A),[5]; 3 μM,inhibited both ERK phosphorylation (FIG. 13A) and network formation (FIG. 13B) at 3 μM (albeit less potently than BT2)
